This note sets out measurements from paper PMC7515921, “MFSD7C switches mitochondrial ATP synthesis to thermogenesis in response to heme” (Nature Communications, 2020).

SMILES strings stand for the structures. pKd: −log10 of the molar value.

For this assay, the target named is T1, MFSD7C (major facilitator superfamily domain containing 7C; FLVCR2; SLC49A2) (Homo sapiens, UniProt Q9UPI3).
T1 construct: N-terminal domain (NTD), amino acids 1–84
T1 sequence (Q9UPI3 1-84): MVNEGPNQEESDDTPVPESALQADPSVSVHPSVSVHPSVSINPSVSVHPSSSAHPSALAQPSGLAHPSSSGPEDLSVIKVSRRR
The assay can be described thus: ITC with purified NTD; also heme absorbance-shift (Soret/Q band) and gel-filtration co-elution. Format: binding.

One may read the pKd as the Kd on a negative log10 scale, so that one unit is a factor of ten. As to `C=CC1=C(C)C2=Cc3c(C=C)c(C)c4[n]3[Fe][n]3c(c(C)c(CCC(=O)O)c3=CC3=NC(=C4)C(C)=C3CCC(=O)O)=CC1=N2` [heme], the pKd is about 6.00.
